Experiments:
[1] = target: T1, human 20S proteasome (h20S core particle); assay: fluorogenic AMC peptide cleavage by purified h20S (activation; Ch-L EC50 […], T-L EC50 […]); type: biochemical
T1 construct: gene PSMB5

[2] = tested on: T1, human 20S proteasome (h20S core particle); assay: fluorogenic AMC peptide cleavage by h20S at […] (activation similar to suxibuzone); type: biochemical

SMILES | EC50 [1] [µM] | fluorogenic AMC peptide cleavage by h20S at 5 and 10 uM (activation similar to s) [2]
CCCCC1(COC(=O)CCC(=O)O)C(=O)N(c2ccccc2)N(c2ccccc2)C1=O [SB, suxibuzone] | 4.4 ± 0.4 | 
CCCCC1(COC(=O)CCC(=O)NCCO)C(=O)N(c2ccccc2)N(c2ccccc2)C1=O [SB-ETA] |  | both test compounds had activity similar to suxibuzone, with no statistically significant difference
